Consider three molecules from patent publication US11337426B2, “Biological control agents against fire blight” (priority 2018, dated 2022).

For data set [1], the system named is Erwinia amylovora strain S01. Nature of the data set: Field trial to control fire blight on Rome apple trees, Geneva NY. The format is in vivo. As for the experimental part:
A field trial was conducted to determine the performance of the formulated product based on the vegetative cells of Pseudomonas poae FL10F and its extracellular metabolites produced in the supernatants and was compared to antibiotic (FireWall 17 WP Streptomycin), copper fungicide (Cueva, Certis, USA) and the biological product Blossom Protect based on two strains of Aureobasidium pullulans. […] Both antibiotic and copper that were used in this trial were EPA registered products. Pseudomonas poae FL10F was cultivated for 2 days at 30° C. and 200 rpm and reached an OD600 nm=2.50, which was empirically determined to represent 2.50×10^9 CFU/mL by plating serial dilutions of the suspension and counting colonies. A 4L of product based on Pseudomonas poae FL10F and its metabolites was produced as described above and was sprayed more than 2 months later on apple Rome trees. Three samples of this formulated product were retained in sterile 50 mL polypropylene centrifuge tubes at room temperature for long-term activity and bacterial count studies.
The 4L product was used during in a field trial conducted in Phelps, (Geneva) NY to evaluate the product against fire blight. Apple Rome were used for this study that had 5 to 12 blossom clusters per tree. These were 1-year-old trees from Waffler Nursery, Wolcott, N.Y.
The experimental treatments were applied using a CO2 Backpack sprayer that was calibrated to deliver 100 gallons per acre (Trees were sprayed to first drip with a “dilute” solution of products.) The sprayer was calibrated at 42 PSI and used 2 Hollow Cone (TXVK18) Nozzles.
An evaluation of treatments was conducted using the method where scissors were dipped into a solution of a streptomycin sensitive Erwinia amylovora strain S01, and the two smallest leaves on each terminal or shoot were cut in half. This severe test is used to simulate infection that can occur following hailstorms. The scissors were dipped into the Erwinia amylovora S01 solution prior to each cut. The apical terminal shoot and the terminal leaves on any side shoots were cut. For the size of these trees, the number of terminals that were cut varied from 9 to 18. To evaluate the treatments for this method, each treatment was applied as before to all leaves and shoots of seven individual trees. The inoculations occurred near dusk, and 1.15 inches of rain occurred during the overnight period. All treatments were applied 30 minutes before the infection and then re-applied 24 hours after the initial inoculation. The second application of treatments was applied to the same trees. The product based on Fluorescent Pseudomonas poae FL10F and its metabolites was first diluted at a concentration of 20% (w/w) with water then it was mixed properly and sprayed.
At 3 weeks following the scissor inoculation, each terminal shoot was rated for the length in inches with typical symptoms of fire blight (rated as SEVERITY). Then the percentage of all shoots that had any symptoms of fire blight was calculated as INCIDENCE).
The objective of this trial was to compare the activity of P. poae FL with antibiotic (Streptomycin), copper fungicide (Cueva, Certis, USA) and the biological product Blossom Protect based on two strains of Aureobasidium pullulans (Porter et al., 1960). Apple trees were infected with […] CFU/mL solution of Erwinia amylovora. The concentration of various treatments applied are represented in Table 13. The medium used in Treatment 7 is the same one used to cultivate the P. poae FL composed of Nutrient Broth NB (Difco) supplemented with 0.5% (w/w) glycerol and a concentration of 4% NaCl (w/w). Neither the medium nor the treatments used were phytotoxic to apple leaves and no phytotoxicity was noted on the apple trees in this study.

Data set [2] concerns E. amylovora S435. As to the kind of experiment: Management of fire blight on shoots of potted McIntosh apple trees. The format is in vivo, Erwinia amylovora. The conditions noted are these: treated 2 h after inoculation, formulations diluted to 20%, streptomycin 100 ppm, 10 d. As to the method:
A trial was conducted at the IRDA research station in Saint-Bruno-de-Montarville, Québec to evaluate the efficacies of the best isolates previously screened. To simulate fire blight, Malus x domestica ‘McIntosh’ cultivar trees were inoculated then treated 2 h later with 20% (w/w) isolate dilutions. Inoculum was obtained by suspending a 5-d culture of the virulent strain E. amylovora […] in potassium phosphate buffer (pH=6.5) in King B agar which favors the growth of this phytopathogen. The bacterial density was adjusted to ˜1×10^9 CFU/mL. Actively growing potted trees (cv. McIntosh grafted onto M26) were inoculated by transversely bisecting the two youngest leaves with scissors dipped in the inoculum. One or two shoots were inoculated per tree. Two hours after inoculation, candidate biological control agent suspensions were sprayed to runoff onto five trees per treatment using a low-pressure sprayer. The experimental design was completely randomized.
Inoculated controls were sprayed either with water or with the medium used to formulate the candidate biocontrol products. Uninoculated controls were sprayed only with water. […] Severity scores were analyzed with a cumulative link mixed model (clmm) in the “ordinal” package of R. Treatment and observation date were used as fixed effects. […]

For data set [3], the system named is E. amylovora S435. Nature of the data set: Agar disc diffusion assay of cell-free supernatants and fractions. The format is cell-based, Erwinia amylovora. The conditions noted are these: active fraction from bioassay-guided fractionation. As to the method: To obtain cell-free supernatants, cultures of both strains were centrifuged at 25 000 rpm for 1 hour. The pellets were discarded and the supernatants were filtered using Stericup™ vacuum filtration system (0.2 μm). Fresh cell-free supernatants were used for the present research, but they could also be stored at +4° C. for one week, or at −20° C. for 6 months, while keeping their activity.
1 L of each bacterial culture was combined, and biomass was removed by centrifugation at 17 700×g for 20 min. The cell-free medium supernatant was applied to 40 g of pre-equilibrated Amberlite™ XAD-16 resin packed in a column. The XAD-16 column was subsequently washed with 1 L of H2O, and then eluted with 1 L of 100% methanol. The methanolic elution was evaporated to dryness by rotary evaporation, and the brown residue was redissolved in 5 ml of purified water (Milli-Q system; Millipore, Bedford, Mass.). The concentrated solution was then applied onto a 12 gram Biotage® SNAP Ultra C18 column to be fractionate using reverse-phase flash chromatography on a Biotage (Stockholm, Sweden) Isorela One instrument. This chromatography was performed using a linear gradient acetonitrile from 5% to 100% over 50 min at 15 ml min^−1. […] The bioactivity of these fractions was further determined by performing agar disc diffusion assay. […]
Background: A growth-free zone around the sample is the usual read-out of agar diffusion tests.

The mark [4] stands for this setting: 3 weeks, Strepmycin 2.4 oz wt/a.

With `[H]/N=C(/N)N[C@H]1[C@H](O)[C@@H](O)[C@H](O[C@@H]2O[C@@H](C)[C@](O)(C=O)[C@H]2O[C@@H]2O[C@@H](CO)[C@H](O)[C@@H](O)[C@@H]2NC)[C@@H](N/C(N)=N\[H])[C@@H]1O` [Streptomycin], the “Fire blight Severity: Average length of shoot with symptoms of Fire blight” value in data set [1] (3 weeks after scissor inoculation, Strepmycin 8 oz wt/a, Cueva 64 fl oz/a, P. poae FL10F 20 % v/v, Blossom Protect 20 oz wt/a) is reported as 3.89 INCHES; in data set [1] (setting [4]), 5.53 INCHES. In addition, the “Fire blight Incidence: Average percentage of shoots with symptons of Fire blight following inoculation” value came to 81.73% in data set [1] (setting [4]) and 52.39% in data set [1] (3 weeks, Strepmycin 8 oz wt/a, Cueva 64 fl oz/a, P. poae FL10F 20 % v/v, Blossom Protect 20 oz wt/a). Besides, the “Phytotoxicity: Percentage of leaves with atypical symptoms” value in data set [1] (Strepmycin 2.4 oz wt/a) is 0.00%; in data set [1] (Strepmycin 8 oz wt/a, Cueva 64 fl oz/a, P. poae FL10F 20 % v/v, Blossom Protect 20 oz wt/a), 0.00%. Moreover, the “Median score (disease severity 0-4)” value in data set [2] is 0.

Take oxydifficidin: the “inhibition halos of the extracellular metabolite fraction on a lawn of E. amylovora S435” value in data set [3] was “comparable in diameter to that of the live strain itself or crude extracellular metabolites therefrom”.

For white line-inducing principle [WLIP], the “inhibition halos of the extracellular metabolite fraction on a lawn of E. amylovora S435” value in data set [3] was “comparable in diameter to that of the live strain itself or crude extracellular metabolites therefrom”.
